Common to all, as to assay type: cell-based
Assay [1] concerns the target T1, AHR (Homo sapiens, UniProt P35869).
T1 sequence (P35869 11-848): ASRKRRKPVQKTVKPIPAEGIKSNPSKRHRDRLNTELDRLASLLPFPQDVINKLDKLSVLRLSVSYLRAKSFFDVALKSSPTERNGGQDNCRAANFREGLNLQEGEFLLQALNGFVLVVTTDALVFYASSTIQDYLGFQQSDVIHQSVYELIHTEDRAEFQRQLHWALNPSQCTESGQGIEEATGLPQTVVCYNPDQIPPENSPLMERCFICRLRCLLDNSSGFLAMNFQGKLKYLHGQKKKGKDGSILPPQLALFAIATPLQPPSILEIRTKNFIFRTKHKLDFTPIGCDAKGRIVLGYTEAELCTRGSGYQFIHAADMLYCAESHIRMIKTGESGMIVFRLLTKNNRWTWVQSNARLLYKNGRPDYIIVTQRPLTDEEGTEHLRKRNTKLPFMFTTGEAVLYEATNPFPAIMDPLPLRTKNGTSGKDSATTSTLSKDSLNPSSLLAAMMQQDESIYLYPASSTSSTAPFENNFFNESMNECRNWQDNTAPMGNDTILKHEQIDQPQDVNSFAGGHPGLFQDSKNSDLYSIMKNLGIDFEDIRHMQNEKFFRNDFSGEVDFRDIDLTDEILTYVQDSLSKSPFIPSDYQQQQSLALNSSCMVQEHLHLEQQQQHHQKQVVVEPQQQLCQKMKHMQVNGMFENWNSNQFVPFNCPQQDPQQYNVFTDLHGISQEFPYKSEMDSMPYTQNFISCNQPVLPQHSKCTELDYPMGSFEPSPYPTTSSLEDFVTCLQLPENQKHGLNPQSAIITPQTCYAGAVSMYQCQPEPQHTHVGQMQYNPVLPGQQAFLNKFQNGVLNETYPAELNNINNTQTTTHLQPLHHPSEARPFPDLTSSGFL
The experiment in a line: In vitro assay 3: AHR-regulated CYP1A1 expression in human cell line (U937, qPCR, KA stimulation). The settings on record: U937 cells, 200 uM KA, 6 hours, CYP1A1 expression by qPCR; read-out: Assay 3: Hum CYP1A1 Antagonism IC50. Put shortly:
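U937 human monocytic cells were stimulated with 200 uM KA for 6 h, with or without compound at eight concentrations from 1 nM to 3 uM, in duplicate. CYP1A1 mRNA was quantified by Taqman qPCR as fold expression normalised to HPRT. Unstimulated cells served as negative control.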
In general terms: In qPCR the cycle at which signal appears reflects the starting amount.

A further assay deals with human monocytes. Description: In vitro assay 4: rescue of TNFα production from human primary monocytes (LPS + KA). The settings on record: one value per donor; for Individual Donors Conc of highest rescue: concentration (of 1, 0.3, 0.1 uM tested) at which highest TNFα rescue was observed; for Individual Donors % rescue TNFα normalised to ref cmpd: human monocytes, 10 ng/mL LPS + 200 uM KA, 18 hours, highest percent rescue relative to highest rescue with GNF-351. The method, then:
In Vitro Assay 4: Rescue of TNFα Production from Human Primary Monocytes
The ability of the substances to enhance immune cell activity was determined. The substances were tested for their capacity to reverse KA-induced inhibition of TNFα production by LPS-stimulated human monocytes. Human monocytes were purified by negative selection from donor PBMCs using Miltenyi beads and seeded at 2×10^5 cells/well in complete growth medium (RPMI 1640, 10% FCS). Monocytes were incubated with 10 ng/mL LPS (O127:B8, #L4516, Sigma) and 200 uM KA (#3375, Sigma) and substances were added at concentrations of 1 uM, 0.3 uM and 0.1 uM and cultured for 18 hours. LPS alone served as the positive control. TNFα production in the supernatant was measured by Meso Scale Discovery immunoassay and the ability of the substances to rescue TNFα production was calculated as a percentage of LPS stimulation and KA-induced inhibition and normalized to the donor-specific response with the reference AHR antagonist compound GNF-351 (Smith et al., J Pharmacol Exp Ther, 2011, 338(1):318-27).

For assay [2], the target named is T1, AHR. The experiment in a line: In vitro assay 1: antagonism in human cell line (transactivation assay, U87 cells prestimulated with kynurenic acid, DRE firefly luciferase reporter). More on the design: host or cells: U87 glioblastoma cells, stably transfected with DRE firefly luciferase and renilla reporter constructs. The settings on record: 150 uM kynurenic acid, 20 hours, read-out: Assay 1: AHR-luc Hum Antagonism IC50. Put shortly: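 U87 glioblastoma cells with endogenous AHR, stably carrying a DRE-driven firefly luciferase reporter and a constitutive renilla reporter. Cells prestimulated with the AHR agonist kynurenic acid before compound addition; data normalized to positive and negative controls.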
In general terms: A reporter such as luciferase makes a cellular process visible.

In assay [3] the target is T1, AHR. The experiment in a line: In vitro assay 2: agonism in human cell line (transactivation assay, U87 cells, DRE firefly luciferase reporter). More on the design: host or cells: U87 glioblastoma cells, stably transfected with DRE firefly luciferase and renilla reporter constructs. The settings on record: no kynurenic acid, 20 hours, read-out: Assay 2: AHR-luc Hum Agonism IC50. Put shortly: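 U87 glioblastoma cells with endogenous AHR, stably carrying DRE-driven firefly luciferase and constitutive renilla reporters. 300 uM kynurenic acid served as positive activation control; data normalized to positive and negative controls.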

pIC50: −log10 of the molar value. Several values for one entry are separate records, joined by “and”; a condition that tells them apart may be missing. Identical values can stand only once.

Turning to `COCC(O)CNC(=O)c1cc(-c2ccc(Cl)cc2)nn(-c2cnn(C)c2)c1=O` (single isomer, unassigned; (-)) [Example 25, (−)-6-(4-Chlorophenyl)-11-(2-hydroxy-3-methoxypropyl)-2-(1-methyl-1H-pyrazol-4-yl)-3-oxo-2,3-dihydropyridazine-4-carboxamide], the pIC50 on AHR [1] was 7.04; on AHR [2], 7.17; on AHR [3] it was under 4.70. Moreover, the “Individual Donors Conc of highest rescue” value in the assay on human monocytes came out at 1 µM. Also, in the assay with human monocytes, the “Individual Donors % rescue TNFα normalised to ref cmpd” value was 46% and 53%.

On to `Cn1cc(-n2nc(-c3ccc(Cl)cc3)cc(C(=O)NCC(O)C(F)F)c2=O)cn1` (centres unmarked) [Example 21, 6-(4-Chlorophenyl)-N-(3,3-difluoro-2-hydroxypropyl)-2-(1-methyl-1H-pyrazol-4-yl)-3-oxo-2,3-dihydropyridazine-4-carboxamide], for which the pIC50 on AHR [1] is 7.74; at AHR [2] it was 7.55; on AHR [3], under 4.70. Besides, the “Individual Donors Conc of highest rescue” value in the assay on human monocytes was 0.3 µM and 1 µM. For the same compound, in the assay on human monocytes, the “Individual Donors % rescue TNFα normalised to ref cmpd” value is 87% and 77%.

As for `Cc1ccc(-c2cc(C(=O)NCC(O)C(F)F)c(=O)n(-c3cnn(C)c3)n2)cc1` (centres unmarked) [Example 13, N-(3,3-Difluoro-2-hydroxypropyl)-6-(4-methylphenyl)-2-(1-methyl-1H-pyrazol-4-yl)-3-oxo-2,3-dihydropyridazine-4-carboxamide], the pIC50 on AHR [1] is 7.70; on AHR [2] it was 7.49; at AHR [3] it was under 4.70. The “Individual Donors Conc of highest rescue” value with human monocytes came to 1 µM. The “Individual Donors % rescue TNFα normalised to ref cmpd” value in the assay with human monocytes is 24% and 85%.

In the case of `Cc1ccc(-c2cc(C(=O)N[C@@H](C)CO)c(=O)n(-c3cnn(C)c3)n2)cc1` [Example 8, N-[(2S)-1-Hydroxypropan-2-yl]-6-(4-methylphenyl)-2-(1-methyl-1H-pyrazol-4-yl)-3-oxo-2,3-dihydropyridazine-4-carboxamide], the pIC50 at AHR [1] is 7.80; on AHR [2], 7.72; at AHR [3], under 4.70. Further, the “Individual Donors Conc of highest rescue” value in the assay with human monocytes is 1 μM (4×) and 0.1 μM. In the assay on human monocytes, the “Individual Donors % rescue TNFα normalised to ref cmpd” value was 99% and 55% and 104% and 109% and 36%.

On to `O=C(N[C@@H]1CCC[C@@H]1O)c1cc(-c2ccc(Cl)cc2)nn(-c2cccnc2)c1=O` [Example 138, 6-(4-Chlorophenyl)-N-[(1R,2S)-2-hydroxycyclopentyl]-3-oxo-2-(pyridin-3-yl)-2,3-dihydropyridazine-4-carboxamide], for which the figures for the negative-log IC50 (pIC50) on AHR [1], at AHR [2] and at AHR [3] were 8.12, 8.04 and under 4.70, respectively. Further, the “Individual Donors Conc of highest rescue” value in the assay on human monocytes was 0.1 µM and 0.3 µM. Further, the “Individual Donors % rescue TNFα normalised to ref cmpd” value in the assay with human monocytes was 49% and 84%.

`O=C(NC[C@@H](O)CO)c1cc(-c2ccc(C(F)(F)F)cc2)nn(-c2cccnc2)c1=O` [Example 113, N-[(2R)-2,3-Dihydroxypropyl]-3-oxo-2-(pyridin-3-yl)-6-[4-(trifluoromethyl)phenyl]-2,3-dihydropyridazine-4-carboxamide]: the results for the pIC50 at AHR [1], on AHR [2] and on AHR [3] were 6.98, 7.32 and under 4.70, respectively. In the assay on human monocytes, the “Individual Donors Conc of highest rescue” value came out at 1 µM. In addition, in the assay with human monocytes, the “Individual Donors % rescue TNFα normalised to ref cmpd” value is 91% and 51%.

Consider `Cn1cc(-n2nc(-c3ccc(Cl)cc3)cc(C(=O)NCC(O)C(F)(F)F)c2=O)cn1` (centres unmarked) [Example 18, 6-(4-Chlorophenyl)-2-(1-methyl-1H-pyrazol-4-yl)-3-oxo-N-(3,3,3-trifluoro-2-hydroxypropyl)-2,3-dihydropyridazine-4-carboxamide], for which the pIC50 on AHR [1] is 7.95; on AHR [2], 7.85; on AHR [3], under 4.70. For the same compound, the “Individual Donors Conc of highest rescue” value in the assay on human monocytes is 1 μM (2×) and 0.3 μM (2×). The “Individual Donors % rescue TNFα normalised to ref cmpd” value in the assay with human monocytes is 83% and 73% and 76% and 105%.

Usually pIC50 stands for the negative decadic logarithm of the IC50, by convention in mol/L.

The values are drawn from patent US12522594B2, “2-heteroaryl-3-oxo-2,3-dihydropyridazine-4-carboxamides for the treatment of cancer” (Deutsches Krebsforschungszentrum, priority 2017, dated 2026).
